System: SARS-CoV-2
Assay: microbe, parasite or virus in culture
Format: cell-based
[1] = Severe acute respiratory syndrome coronavirus 2, VeroE6/TMPRSS2
[2] = Severe acute respiratory syndrome coronavirus 2, VeroE6/TMPRSS2, Beta strain (TY8-612)
[3] = Severe acute respiratory syndrome coronavirus 2, VeroE6/TMPRSS2, Gamma strain (TY7-501)
[4] = Severe acute respiratory syndrome coronavirus 2, VeroE6/TMPRSS2, Gamma strain (TY7-503)

SMILES | EC50 [1] | EC50 (Severe acute respiratory syndrome coronavirus 2, VeroE6/TMPRSS2, Alpha strain (QHN001)) | EC50 (Severe acute respiratory syndrome coronavirus 2, VeroE6/TMPRSS2, Alpha strain (QHN002)) | EC50 (Severe acute respiratory syndrome coronavirus 2, VeroE6/TMPRSS2, Alpha strain (QK002)) | EC50 [2] | EC50 [3] | EC50 [4] | EC50 (Severe acute respiratory syndrome coronavirus 2, VeroE6/TMPRSS2, Delta strain (TY11-927-P1)) | EC50 (Severe acute respiratory syndrome coronavirus 2, VeroE6/TMPRSS2, Lambda strain (TY33-456)) | EC50 (Severe acute respiratory syndrome coronavirus 2, VeroE6/TMPRSS2, Mu strain (TY26-717)) | EC50 (Severe acute respiratory syndrome coronavirus 2, VeroE6/TMPRSS2, Theta strain (TY28-444))
Cc1cncc(-n2c(=O)nc(Nc3cc4cn(C)nc4cc3Cl)n(Cc3cc(F)c(F)c(F)c3)c2=O)c1 | 0.12 µM | 0.14 µM | 0.13 µM | 0.16 µM | 0.16 µM | 0.22 µM | 0.15 µM |  |  |  | 
Cn1cnc(Cn2c(=O)[nH]/c(=N\c3cc4cn(C)nc4cc3Cl)n(Cc3cc(F)c(F)cc3F)c2=O)n1 | 0.37 µM |  |  |  | 0.4 µM | 0.5 µM | 0.43 µM | 0.41 µM | 0.27 µM | 0.43 µM | 0.29 µM

Reference: US20250127788A1, “PHARMACEUTICAL COMPOSITION CONTAINING TRIAZINE DERIVATIVE” (Shionogi & Co., Ltd., priority 2021, published 2025)
